Test results reported in patent US9573975B2, “Melanoma antigen peptide and uses thereof” (INSERM (INSTITUT NATIONAL DE LA SANTE ET DE LA RECHERCHE …, priority 2012, dated 2017).

Test system: MELOE-1 specific CD4 T cell clones
Assay: Recognition of autologous DC loaded with antigen by CD4 T cell clones (TNF-α)
Type: cell-based, human
Description: FIG. 4: Class II epitopes are naturally processed from MELOE-1 whole antigen. Autologous DC, were loaded (before or after fixation) with MELOE-12-46 (1 μM) or, as a negative control, with Melan-A16-40L peptide (1 μM), and matured. T cell clones were then stimulated with DC at a ratio 1:1, during 5 h in presence of Brefeldin A, then stained with APC-conjugated anti-CD3 mAb, fixed with 4% paraformaldehyde, labeled with PE-conjugated anti-TNF-α mAb and analyzed by flow cytometry. Histograms illustrated the % of TNF-α producing cells among CD3 positive T cells.
Dendritic Cells Generation and Loading Monocytes were purified from PBMC of healthy donors by a CD14-enrichment kit, according the recommendations of the supplier (Stem Cell, France). Immature dendritic cells (iDC) were generated by culturing monocytes in RPMI supplemented with 20 mg/mL of human albumin, 1000 IU/mL of GM-CSF and 200 IU/mL of IL-4 for 5 days. Then, iDC were pulsed with the whole MELOE-1 (1 μM) protein or the modified Melan-A16-40 A27L as negative control (1 μM) and matured with 20 ng/mL of TNF-α and 50 μg/mL of PolyI:C for 4 hours at 37° C. Finally they were fixed for 1 minute with PBS/0.015% glutaraldehyde. Alternatively, iDC were first matured, fixed and then pulsed with antigens at the same concentration. […]

## MSCVGYPDEATSREQFLPSEGAACPPWHPSERISSTLNDECWPASL [MELOE-1]
DC loaded after DC fixation
  recognition by specific CD4 T cell clones of loaded autologous DC: only a weak recognition
iDC loaded with 1 μM in serum-free medium, matured, then fixed
  reactivity of the four CD4 T cell clones against loaded autologous DC: reactive
